Experimental data as given in PubChem BioAssay AID2060503 (Molecular Pharmacology Branch, DTP, NCI, 2025).
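Note: spheroids exposed to agents for 7 days before readout; percent viability relative to DMSO vehicle control taken as 100%.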

Each compound was assayed on 817829-284-R-J1-PDC complex spheroids, viability (assay: Anticancer human tumor 817829-284-R-J1-PDC patient-derived colon adenocarcinoma cell line growth inhibition [GQUAD]). Conditions: second compound 1 µM; first compound 0.316 µM; active compounds read low.
Source text: DNA G-quadruplex Stabilizer Agents in Combinations in Complex Spheroids
A high-throughput screen of multi-cell type tumor spheroids was designed to identify active combinations of DNA G-quadruplex stabilizer agents and targeted small molecules. Complex spheroids include a stromal component modeled by human endothelial cells (HUVEC) and fibroblasts modeled by human mesenchymal stem cells (MSCs). The concentration ranges selected for each drug and investigational agent were based upon clinically achievable concentrations if the clinical Cmax of the agent was known.
Compounds. The drugs and investigational agents: pidnarulex (CX-5461; NSC782164), APTO-253 (NSC789042), BRACO-19 (NSC847499), peposertib (NSC802822), ceralasertib (NSC780249), elimusertib (NSC800525), camonsertib (NSC841442), AZD-1390 (NSC803789), olaparib (NSC753686), talazoparib (NSC767125), ART-558 (NSC835418), sotorasib (NSC818433), MRTX-1133 (NSC836407), SN-38 (NSC673596), topotecan (NSC609699), etoposide (NSC141540), doxorubicin (NSC123127), gemcitabine (NSC613327), 5-fluorouracil (NSC19893), paclitaxel (NSC125973), vemurafenib (NSC761431), panobinostat (NSC761190), R-306465 (JNJ-16241199; NSC773264), adavosertib (NSC754352), TP-3654 (NSC805149), carboplatin (NSC241240), KSQ-4279 (NSC840948), and staurosporine (NSC755774) were obtained from the National Cancer Institute (NCI) Developmental Therapeutics Program Chemical Repository (34). The FDA-approved anticancer drug set is available from the NCI Developmental Therapeutics Program. […] The stock solutions were prepared in dimethyl sulfoxide (DMSO, Sigma-Aldrich, St. Louis, MO, cat. D2650) at 800-fold the tested concentration and stored at -70 degrees C prior to their use. All drugs and investigational agents were tested over a range starting from a high concentration at or near the clinical Cmax and decreasing in half-log increments. If the clinical Cmax for an agent had not been determined, the highest concentration tested was 10 microM.
2.3 Cell Culture. All cells were maintained in an incubator at 37 degrees C and 5% CO2 with 95% humidity. The PDC lines were cultured according to standard operating procedures established by the NCI PDMR. All PDCs were thawed and cultured in Matrigel-coated flasks prepared with a working solution of 1X Ham's F-12 nutrient mix, without supplementation (Invitrogen, cat. 11765054), 100 U/mL penicillin-streptomycin (Invitrogen, cat. 15140122), and 2.5% Matrigel (Corning Inc., cat. 354248) for the first three passages. The 857933-349-R-J2-PDC line was cultured in 6C/Colon 1B media, which includes advanced DMEM/F-12 (Thermo Fisher Scientific, cat. 12634028), 10 mM HEPES (Thermo Fisher Scientific, cat. 15630080), 1X GlutaMAX supplement (Thermo Fisher Scientific, cat. 35050061), 0.1 mg/mL primocin (InvivoGen, cat. ant-pm-2), 10% defined fetal bovine serum, heat inactivated (HyClone Laboratories Inc., cat. SH30070.03HI), 50% L-WRN conditioned media (ATCC, cat. CRL-3276), 1.25 mM N-Acetyl-L-cysteine (Sigma-Aldrich, cat. A9165), 10 mM nicotinamide (Sigma-Aldrich, cat. N0636), 1X B-27 supplement (Thermo Fisher Scientific, cat. 17504044), 1X N-2 supplement (Thermo Fisher Scientific, cat. 17502048), 10 microM Y-27632 dihydrochloride (Tocris Bioscience, cat. 1254), and 50 ng/mL human EGF recombinant protein (Thermo Fisher Scientific, cat. PHG0311). The 485176-168-R4-J1-PDC line was cultured in Panc media, which includes all 6C/Colon 1B media components plus 100 ng/mL human FGF-10 (Thermo Fisher Scientific, cat. 100-26), 500 nM SB-431542 (Selleckchem, cat. S1067), and gastrin (Tocris, cat. 3006).
[…]
`CC1COCCN1c1cc(-c2ccnn2C)c2ccnc(-c3ccn[nH]3)c2n1` (stereo unspecified) + Cc1[nH]c2ccc(F)cc2c1-c1nc2c3cccnc3c3ncccc3c2[nH]1 showed a viability, T/C of 7.66%. `CC1COCCN1c1cc(C2(S(C)(=N)=O)CC2)nc(-c2ccnc3[nH]ccc23)n1` (stereo unspecified) + Cc1[nH]c2ccc(F)cc2c1-c1nc2c3cccnc3c3ncccc3c2[nH]1 was tested, and the viability, T/C was 105%. `COc1ccc([C@@H](O)c2cc(-c3ncnc4cc(N5CCOCC5)ccc34)c(F)cc2Cl)nn1` + Cc1[nH]c2ccc(F)cc2c1-c1nc2c3cccnc3c3ncccc3c2[nH]1 showed a viability, T/C of 132%.

Same assay, conditions: second compound 1 µM; first compound 1 µM; active compounds read low
In the case of `CC(C)(O)C1CCC(Nc2ccc3ncc(-c4cccc(C(F)(F)F)c4)n3n2)CC1` (stereo unspecified) + CN(C)c1ccc(Nc2c3ccc(NC(=O)CCN4CCCC4)cc3nc3cc(NC(=O)CCN4CCCC4)ccc23)cc1, the viability, T/C was 93.5%. `CC1COCCN1c1cc(-c2ccnn2C)c2ccnc(-c3ccn[nH]3)c2n1` (stereo unspecified) + Cc1[nH]c2ccc(F)cc2c1-c1nc2c3cccnc3c3ncccc3c2[nH]1 gave a viability, T/C of 6.25%. In the case of `CC1COCCN1c1cc(C2(S(C)(=N)=O)CC2)nc(-c2ccnc3[nH]ccc23)n1` (stereo unspecified) + Cc1[nH]c2ccc(F)cc2c1-c1nc2c3cccnc3c3ncccc3c2[nH]1, the viability, T/C was 27.2%. In the case of `COc1ccc([C@@H](O)c2cc(-c3ncnc4cc(N5CCOCC5)ccc34)c(F)cc2Cl)nn1` + Cc1[nH]c2ccc(F)cc2c1-c1nc2c3cccnc3c3ncccc3c2[nH]1, the viability, T/C was 90%.

Same assay, conditions: second compound 1 µM; first compound 3.16 µM; active compounds read low
Compound `CC(C)(O)C1CCC(Nc2ccc3ncc(-c4cccc(C(F)(F)F)c4)n3n2)CC1` (stereo unspecified) + CN(C)c1ccc(Nc2c3ccc(NC(=O)CCN4CCCC4)cc3nc3cc(NC(=O)CCN4CCCC4)ccc23)cc1 has a viability, T/C of 28.9%. In the case of `CC1COCCN1c1cc(-c2ccnn2C)c2ccnc(-c3ccn[nH]3)c2n1` (stereo unspecified) + Cc1[nH]c2ccc(F)cc2c1-c1nc2c3cccnc3c3ncccc3c2[nH]1, the viability, T/C was 5.62%. `CC1COCCN1c1cc(C2(S(C)(=N)=O)CC2)nc(-c2ccnc3[nH]ccc23)n1` (stereo unspecified) + Cc1[nH]c2ccc(F)cc2c1-c1nc2c3cccnc3c3ncccc3c2[nH]1 showed a viability, T/C of 10.7%. Compound `COc1ccc([C@@H](O)c2cc(-c3ncnc4cc(N5CCOCC5)ccc34)c(F)cc2Cl)nn1` + Cc1[nH]c2ccc(F)cc2c1-c1nc2c3cccnc3c3ncccc3c2[nH]1 has a viability, T/C of 72.6%.

Same assay, conditions: second compound 1 µM; first compound 10 µM; active compounds read low
Compound `CC(C)(O)C1CCC(Nc2ccc3ncc(-c4cccc(C(F)(F)F)c4)n3n2)CC1` (stereo unspecified) + CN(C)c1ccc(Nc2c3ccc(NC(=O)CCN4CCCC4)cc3nc3cc(NC(=O)CCN4CCCC4)ccc23)cc1 has a viability, T/C of 35.1%. `CC1COCCN1c1cc(-c2ccnn2C)c2ccnc(-c3ccn[nH]3)c2n1` (stereo unspecified) + Cc1[nH]c2ccc(F)cc2c1-c1nc2c3cccnc3c3ncccc3c2[nH]1 was tested, and the viability, T/C was 4.21%. `CC1COCCN1c1cc(C2(S(C)(=N)=O)CC2)nc(-c2ccnc3[nH]ccc23)n1` (stereo unspecified) + Cc1[nH]c2ccc(F)cc2c1-c1nc2c3cccnc3c3ncccc3c2[nH]1 gave a viability, T/C of 6.79%. In the case of `COc1ccc([C@@H](O)c2cc(-c3ncnc4cc(N5CCOCC5)ccc34)c(F)cc2Cl)nn1` + Cc1[nH]c2ccc(F)cc2c1-c1nc2c3cccnc3c3ncccc3c2[nH]1, the viability, T/C was 48.3%.

Same assay, conditions: second compound 3.16 µM; first compound 0.0316 µM; active compounds read low
For `CC(C)(O)C1CCC(Nc2ccc3ncc(-c4cccc(C(F)(F)F)c4)n3n2)CC1` (stereo unspecified) + CN(C)c1ccc(Nc2c3ccc(NC(=O)CCN4CCCC4)cc3nc3cc(NC(=O)CCN4CCCC4)ccc23)cc1, the viability, T/C was 96.5%. `CC1COCCN1c1cc(-c2ccnn2C)c2ccnc(-c3ccn[nH]3)c2n1` (stereo unspecified) + Cc1[nH]c2ccc(F)cc2c1-c1nc2c3cccnc3c3ncccc3c2[nH]1 showed a viability, T/C of 35.8%. `CC1COCCN1c1cc(C2(S(C)(=N)=O)CC2)nc(-c2ccnc3[nH]ccc23)n1` (stereo unspecified) + Cc1[nH]c2ccc(F)cc2c1-c1nc2c3cccnc3c3ncccc3c2[nH]1 showed a viability, T/C of 97.7%. `COc1ccc([C@@H](O)c2cc(-c3ncnc4cc(N5CCOCC5)ccc34)c(F)cc2Cl)nn1` + Cc1[nH]c2ccc(F)cc2c1-c1nc2c3cccnc3c3ncccc3c2[nH]1 gave a viability, T/C of 102%.

Same assay, conditions: second compound 3.16 µM; first compound 0.1 µM; active compounds read low
Compound `CC(C)(O)C1CCC(Nc2ccc3ncc(-c4cccc(C(F)(F)F)c4)n3n2)CC1` (stereo unspecified) + CN(C)c1ccc(Nc2c3ccc(NC(=O)CCN4CCCC4)cc3nc3cc(NC(=O)CCN4CCCC4)ccc23)cc1 has a viability, T/C of 97.3%. `CC1COCCN1c1cc(-c2ccnn2C)c2ccnc(-c3ccn[nH]3)c2n1` (stereo unspecified) + Cc1[nH]c2ccc(F)cc2c1-c1nc2c3cccnc3c3ncccc3c2[nH]1 gave a viability, T/C of 8.61%.
